The test can be described thus: Inhibition of human cytomegalovirus protease by scintillation proximity assay. Also noted: species or system Human betaherpesvirus 5.

Each structure is given as a SMILES string.

`CCCCCc1cc(O)cc(O)c1C(=O)Oc1cc(O)c(C(=O)Oc2cc(O)c(C(=O)O)c(CCC)c2)c(CCC)c1` [CYTONIC ACID A] yielded an IC50 of 43 µM.

As for `CCCCCc1cc(OC(=O)c2c(O)cc(OC(=O)c3c(O)cc(O)cc3CCC)cc2CCC)cc(O)c1C(=O)O` [CYTONIC ACID B], the IC50 was 11 µM.

Source of the values: ChEMBL document CHEMBL1154574, “Cytonic acids A and B: novel tridepside inhibitors of hCMV protease from the endophytic fungus Cytonaema species” (J Nat Prod, 2000).
